From patent publication US8188064B2, “Vitamin D analogs for obesity prevention and treatment” (Wisconsin Alumni Research Foundation, priority 2003, dated 2012)
Entries after “also recorded” stand apart in the source; their conditions may differ.

Columns and labels:
SCD-1 mRNA = test: Inhibition of SCD-1 mRNA induction in 3T3-L1 cells (RT-PCR); type: cell-based, murine; details: for inhibition of SCD-1 mRNA induction: result in words, MDI-treated 3T3-L1 cells
Text: Chomczynski, P. et al., Anal. […] NO: 4)).

[1] = molecular target: T1, full-length recombinant rat vitamin D receptor (Rattus norvegicus, UniProt P13053); test: Vitamin D receptor binding (competition with 3H-1,25(OH)2D3); details: for binding to the vitamin D receptor, compared to 1α,25(OH)2D3: result in words, competition for tritiated hormone binding
T1 construct: Full-length recombinant rat receptor was expressed in E. coli; histidine tag (C); made in house; host or cells: E. coli BL21(DE3) Codon Plus RIL
T1 sequence (P13053 1-423): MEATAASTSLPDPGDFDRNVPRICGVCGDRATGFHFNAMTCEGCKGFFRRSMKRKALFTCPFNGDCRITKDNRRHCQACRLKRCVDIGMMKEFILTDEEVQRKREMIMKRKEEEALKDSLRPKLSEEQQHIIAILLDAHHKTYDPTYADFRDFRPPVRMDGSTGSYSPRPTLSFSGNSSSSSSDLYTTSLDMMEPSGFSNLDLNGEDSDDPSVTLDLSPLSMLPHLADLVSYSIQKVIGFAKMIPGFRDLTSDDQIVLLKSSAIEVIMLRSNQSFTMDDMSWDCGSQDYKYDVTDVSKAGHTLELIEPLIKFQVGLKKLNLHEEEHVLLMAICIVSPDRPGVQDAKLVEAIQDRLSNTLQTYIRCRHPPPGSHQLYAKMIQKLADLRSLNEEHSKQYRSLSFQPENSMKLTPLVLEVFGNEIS
Method: Full-length recombinant rat receptor was expressed in E. coli BL21(DE3) Codon Plus RIL cells and purified to homogeneity using two different column chromatography systems. The first system was a nickel affinity resin that utilizes the C-terminal histidine tag on this protein. The protein that was eluted from this resin was further purified using ion exchange chromatography (S-Sepharose Fast Flow). Aliquots of the purified protein were quick frozen in liquid nitrogen and stored at −80° C. until use. For use in binding assays, the protein was diluted in TEDK50 (50 mM Tris, 1.5 mM EDTA, pH 7.4, 5 mM DTT, 150 mM KCl) with 0.1% Chaps detergent. The receptor protein and ligand concentration was optimized such that no more than 20% of the added radiolabeled ligand was bound to the receptor.
Unlabeled ligands were dissolved in ethanol and the concentrations determined using UV spectrophotometry (1,25(OH)2D3: molar extinction coefficient=18,200 and λmax=265 nm; Analogs: molar extinction coefficient=42,000 and λmax=252 nm). Radiolabeled ligand (^3H-1,25(OH)2D3, ˜159 Ci/mmole) was added in ethanol at a final concentration of 1 nM.
Radiolabeled and unlabeled ligands were added to 100 mcl of the diluted protein at a final ethanol concentration of ≦10%, mixed and incubated overnight on ice to reach binding equilibrium. The following day, 100 mcl of hydroxylapatite slurry (50%) was added to each tube and mixed at 10-minute intervals for 30 minutes. The hydroxylapaptite was collected by centrifugation and then washed three times with Tris-EDTA buffer (50 mM Tris, 1.5 mM EDTA, pH 7.4) containing 0.5% Titron X-100. After the final wash, the pellets were transferred to scintillation vials containing 4 ml of Biosafe II scintillation cocktail, mixed and placed in a scintillation counter. Total binding was determined from the tubes containing only radiolabeled ligand.

[2] = tested on: Human promyelocytic leukemia (HL60) cells; test: HL-60 differentiation (nitro blue tetrazolium reduction); type: cell-based; details: for differentiation of HL-60 cells, compared to 1α,25(OH)2D3: result in words
Method: The study drugs were dissolved in ethanol and the concentrations determined using UV spectrophotometry. Serial dilutions were prepared so that a range of drug concentrations could be tested without changing the final concentration of ethanol (≦0.2%) present in the cell cultures.
Human promyelocytic leukemia (HL60) cells were grown in RPMI-1640 medium containing 10% fetal bovine serum. The cells were incubated at 37° C. in the presence of 5% CO2.
HL60 cells were plated at 1.2×10^5 cells/ml. Eighteen hours after plating, cells in duplicate were treated with drug. Four days later, the cells were harvested and a nitro blue tetrazolium reduction assay was performed (Collins et al., 1979; J. Exp. Med. 149:969-974). The percentage of differentiated cells was determined by counting a total of 200 cells and recording the number that contained intracellular black-blue formazan deposits. Verification of differentiation to monocytic cells was determined by measuring phagocytic activity (data not shown).

3T3-L1 cells = test: Inhibition of 3T3-L1 differentiation into mature adipocytes (Oil-Red-O staining); type: cell-based, murine; details: for inhibition of differentiation of 3T3-L1 cells into mature adipocytes (Oil-Red-O staining): result in words, MDI-treated cells, staining at day 10
Method: Various 19-nor vitamin D analogs were or are tested and found to inhibit the differentiation of preadipocytes into mature adipocytes, to reduce body fat, to inhibit an increase in PPARγ, C/EBPα, and/or SCD-1 gene transcription and to be useful in treating and preventing obesity both in vivo and in vitro. The undifferentiated preadipocyte 3T3-L1 subline, a derivative of the original mouse fibroblast cell line, is one of the most accepted models for investigating the adipogenesis process and was used for the analysis. Two days after reaching confluence, 3T3-L1 cells can be induced to differentiate into adipocytes (see Mackall, J. C. et al. J. Biol. Chem., 251(20), 6462-6464 (1976)) with the addition of a cAMP phosphodiesterase inhibitor, dexamethasone (a glucocortoid), and insulin. […] The induction of PPARγ and C/EBPα is required for adipocyte differentiation. […] SCD-1 is an enzyme found in adipocytes that converts saturated fatty acids (C16 and C18) to their monounsaturated forms (C16:1 and C18:1). The deposition of triglyceride can also be detected as early as 3 days, and by the 7th to 14th days post-confluence, greater than 80% of the cells in the monolayer stain positively with Oil-red-O.

[3] = Bone calcium mobilization (serum calcium on low calcium diet); type: in vivo, rat; details: result in words; vitamin D deficient rat model, compared to 1α,25(OH)2D3
Method: (§1) Male, weanling Sprague-Dawley rats were placed on Diet 11 (0.47% Ca) diet+AEK for one week followed by Diet 11 (0.02% Ca)+AEK for 3 weeks. The rats were then switched to a diet containing 0.47% Ca for one week followed by two weeks on a diet containing 0.02% Ca. Dose administration began during the last week on 0.02% calcium diet. Four consecutive ip doses were given approximately 24 hours apart. Twenty-four hours after the last dose, blood was collected from the severed neck and the concentration of serum calcium determined as a measure of bone calcium mobilization. The first 10 cm of the intestine was also collected for intestinal calcium transport analysis using the everted gut sac method.

[4] = tested on: 24-hydroxylase (24Ohase) gene promoter in ROS 17/2.8 (bone) cells; test: In vitro transcription assay (luciferase reporter); type: cell-based; details: result in words
Method: Transcription activity was measured in ROS 17/2.8 (bone) cells that were stably transfected with a 24-hydroxylase (24Ohase) gene promoter upstream of a luciferase reporter gene (Arbour et al., 1998). Cells were given a range of doses. Sixteen hours after dosing the cells were harvested and luciferase activities were measured using a luminometer. RLU=relative luciferase units.

[5] = Intestinal calcium transport (everted gut sac); type: in vivo; details: result in words; vitamin D deficient rat model, compared to 1α,25(OH)2D3
Method: as §1

Structure (SMILES) | binding to the vitamin D receptor, compared to 1α,25(OH)2D3 [1] | differentiation of HL-60 cells, compared to 1α,25(OH)2D3 [2] | inhibition of differentiation of 3T3-L1 cells into mature adipocytes (Oil-Red-O staining) (3T3-L1 cells) | bone calcium mobilization activity [3] | transcriptional activity in bone cells, compared to 1α,25(OH)2D3 [4] | intestinal calcium transport activity [5] | further results
CC(CCCC(C)(C)O)C1CCC2C(=CC=C3CC(O)C(=CCCO)C(O)C3)CCCC21C (stereo not shown) [1AGR] | very active | as potent as | nearly equipotent; also recorded: so much greater; also recorded: active | significant ability to mobilize calcium from bone; also recorded: active | significant transcriptional activity | relatively high intestinal calcium transport activity; also recorded: active | inhibition of SCD-1 mRNA induction (SCD-1 mRNA): nearly equipotent; also recorded: active; binding to the vitamin D receptor, compared to 1α,25(OH)2D3 ([1]; listed as AGR): less than five times less potent; cells induced to differentiate in the NBT assay ([2]; concentration 1×10^−7 M): same degree of differentiation
C=C1[C@H](O)CC(=C/C=C2\CCC[C@]3(C)[C@@H](CC)CC[C@@H]23)C[C@H]1O [2-Mpregna] | as or nearly effective as calcitriol |  | nearly as potent as the native hormone | little, if any, activity |  | little, if any, activity | inhibition of SCD-1 mRNA induction (SCD-1 mRNA): nearly as potent as the native hormone; inhibition of SCD-1 mRNA induction (SCD-1 mRNA; listed as 2Mpregna): still active; inhibition of SCD1 mRNA induction (SCD-1 mRNA; tested at 1×10^−8.5 M): active; inhibition of differentiation of 3T3-L1 cells into mature adipocytes (Oil-Red-O staining) (3T3-L1 cells; listed as 2Mpregna): still active; inhibition of differentiation of MDI-treated 3T3-L1 cells (oil-red-O staining) (3T3-L1 cells; tested at 1×10^−8.5 M): active
CCCC[C@H](C)[C@H]1CC[C@H]2/C(=C/C=C3C[C@@H](O)C(C)[C@H](O)C3)CCC[C@]12C (stereo partly drawn) [2α-methyl-19,26,27-trinor, 2α-methyl-19,26,27-trinor-(20S)-1α-hydroxyvitamin D3] | bound equally well | almost as potent |  | very little bone calcium mobilization activity | similar |  | 
C=C1[C@H](O)CC(=C/C=C2\CCC[C@@H]3[C@@H](C(C)C)CC[C@@H]23)C[C@H]1O [18,19-dinor-2MP, 2-methylene-18,19-dinor-1α-hydroxyhomopregnacalciferol] | bound equally well | almost as potent |  | very little bone calcium mobilization activity | about the same transcriptional activity | very little activity | 
C[C@H](/C=C/[C@H](C)C(C)(C)O)[C@H]1CC[C@H]2/C(=C/C=C3C[C@@H](O)C[C@H](O)C3)CCC[C@]12C [19-nor-1α,25-dihydroxyvitamin D2, reference compound] | as well as the native hormone |  | equivalent in potency; also recorded: active | very low bone calcium mobilizing activity |  |  | inhibition of differentiation of 3T3-L1 cells into mature adipocytes (Oil-Red-O staining) (3T3-L1 cells; listed as 19-nor-1α,25-dihydroxyvitamin D2): more active
C=C1[C@H](O)C/C(=C/C=C2\CCC[C@]3(C)[C@@H]([C@@H](C)CC)CC[C@@H]23)C[C@@H]1O [(1β,20S)2MbisP, (20S)-1β-hydroxy-2-methylene-19-nor-bishomo-pregnacalciferol, reference compound] | binds poorly, if at all |  |  |  |  |  | inhibition of SCD-1 mRNA induction (SCD-1 mRNA; listed as 1-(20S)2-MbisP): unable to inhibit; inhibition of SCD-1 mRNA induction (SCD-1 mRNA; listed as (1βOH, 20S)2M-BisP): ineffective; inhibition of differentiation of 3T3-L1 cells into mature adipocytes (Oil-Red-O staining) (3T3-L1 cells; listed as 1-(20S)2-MbisP): unable to inhibit; inhibition of differentiation of 3T3-L1 cells into mature adipocytes (Oil-Red-O staining) (3T3-L1 cells; listed as (1βOH, 20S)2M-BisP): ineffective
C=C1[C@H](O)CC(=C/C=C2\CCC[C@]3(C)[C@@H]([C@H](C)/C=C/[C@@H](C)C(C)(C)O)CC[C@@H]23)C[C@H]1O [(24epi)D2] |  |  | improved; also recorded: active | less active |  | less active | higher affinity binding to the vitamin D receptor than the native hormone ([1]; higher affinity than native hormone): approximately 0.5 log units
C=C1[C@H](O)CC(=C/C=C2\CCC[C@]3(C)[C@@H]([C@@H](C)CCCC(C)(C)C)CC[C@@H]23)C[C@H]1O [TMM] |  |  | inhibit; also recorded: effective | active |  | active | 
